According to patent US10793559B2, “Chemical compounds” (GlaxoSmithKline Intellectual Property Development Limited, priority 2016, dated 2020):
“And” between values parts separate entries of the source, which are not always exact repeats. Identical values can stand only once. Counter-ions that a name gives are not always drawn.

These compounds were tested against PI3K-Delta (Homo sapiens, UniProt O00329) (assay: PI3K HTRF assay (PI3K Delta)). Settings: PI3K-Delta 1.5 nM, 80 μM ATP, 10 μM PIP2 final, read-out: mean pIC50 in the PI3K Delta assay (converted).
Type: biochemical
Protocol: Biological Data PI3K HTRF Assay
The binding of compounds to PI3K-alpha/beta/delta/gamma is determined by homogeneous time resolved fluorescence (HTRF) assays as follows;
Briefly, solid compound is dissolved in 100% DMSO at a concentration of 2 mM. Dilutions are prepared in 100% DMSO using a 1 in 4 serial step dilution. The dilutions are transferred to black low volume Greiner assay plates ensuring that the DMSO concentration is constant across the plate at 1% (0.1 ul/well).
PI3K Reaction Buffer (contains 50 mM HEPES pH7.0 (NaOH), 150 mM NaCl, 10 mM MgCl2, 2.3 mM sodium cholate, 10 μM CHAPS made up in milliQ water). Fresh DTT is added at a final concentration of 1 mM on the day of use. Wortmannin at a concentration sufficient to produce 100% inhibition (8.33e-6 M) is added to column 18 of compound plates.
Enzyme solutions: 1× PI3K assay Buffer containing: • 550 pM PI3K-Alpha enzyme (275 pM final assay concentration) • 800 pM PI3K-Beta enzyme (400 pM final assay concentration) • 3 nM PI3K-Delta enzyme (1.5 nM final assay concentration) • 10 nM PI3K-Gamma enzyme (5 nM final assay concentration)
These concentrations are optimal to achieve a signal:background of between 1.5-4.5. The enzyme solution is added to columns 1-24 (3 ul/well) and plates are incubated for 15 minutes at room temperature.
Substrate solution: 1× PI3K assay buffer containing: • PI3K-Alpha: 500 μM ATP, 20 μM PIP2 and 120 nM biotin-PIP3. (Final assay concentrations are 250 μM ATP, 10 μM PIP2 (both at Km) and 40 nM biotin-PIP3) • PI3K-Beta: 800 μM ATP, 20 μM PIP2 and 120 nM biotin-PIP3. (Final assay concentrations are 400 μM ATP, 10 μM PIP2 (both at Km) and 40 nM biotin-PIP3) • PI3K-Delta: […], 20 μM PIP2 and 120 nM biotin-PIP3. (Final assay concentrations are 80 μM ATP, 10 μM PIP2 (both at Km) and 40 nM biotin-PIP3) • PI3K-Gamma: 30 μM ATP, 20 μM PIP2 and 120 nM biotin-PIP3.
This is added to all wells and plates are incubated for 1 hour at room temperature.
Detection solution: PI3K Detection Buffer (contains 50 mM HEPES pH7.0 (HCl), 150 mM NaCl, 2.3 mM sodium cholate, 10 μM CHAPS, 240 mM potassium fluoride) containing 2 mM DTT (2× final concentration), 90 nM GRP-1 PH domain, 300 nM Streptavidin-APC and 24 nM Europium-anti-GST (6× final concentrations)
This is mixed left at room temperature (protected from light).
STOP solution: PI3K STOP Buffer (contains 50 mM HEPES pH7.0 (HCl), 150 mM NaCl, 2.3 mM sodium cholate, 10 μM CHAPS, 150 mM EDTA).
Detection solution is diluted 1:1 with STOP solution and added to all wells (3 ul/well). Plates are covered and incubated on the bench for 45-60 minutes. Plates are read on a PerkinElmer Envision, measuring TR-FRET between the complex formed between the GST-tagged PH domain and biotinylated PIP3 which both recruit fluorophores (Europium-labelled anti-GST & Strep-APC respectively). […], this complex is disrupted by the competitive action of non-biotinylated PIP3 (formed in the assay by the phosphorylation of PIP2 by the kinase & ATP). From this, the ratio of acceptor/donor was calculated (Aex=317 nm, Aem donor=615 nm, em acceptor=665 nm) and used for data analysis.

Sequence of PI3K-Delta (O00329 whole entry): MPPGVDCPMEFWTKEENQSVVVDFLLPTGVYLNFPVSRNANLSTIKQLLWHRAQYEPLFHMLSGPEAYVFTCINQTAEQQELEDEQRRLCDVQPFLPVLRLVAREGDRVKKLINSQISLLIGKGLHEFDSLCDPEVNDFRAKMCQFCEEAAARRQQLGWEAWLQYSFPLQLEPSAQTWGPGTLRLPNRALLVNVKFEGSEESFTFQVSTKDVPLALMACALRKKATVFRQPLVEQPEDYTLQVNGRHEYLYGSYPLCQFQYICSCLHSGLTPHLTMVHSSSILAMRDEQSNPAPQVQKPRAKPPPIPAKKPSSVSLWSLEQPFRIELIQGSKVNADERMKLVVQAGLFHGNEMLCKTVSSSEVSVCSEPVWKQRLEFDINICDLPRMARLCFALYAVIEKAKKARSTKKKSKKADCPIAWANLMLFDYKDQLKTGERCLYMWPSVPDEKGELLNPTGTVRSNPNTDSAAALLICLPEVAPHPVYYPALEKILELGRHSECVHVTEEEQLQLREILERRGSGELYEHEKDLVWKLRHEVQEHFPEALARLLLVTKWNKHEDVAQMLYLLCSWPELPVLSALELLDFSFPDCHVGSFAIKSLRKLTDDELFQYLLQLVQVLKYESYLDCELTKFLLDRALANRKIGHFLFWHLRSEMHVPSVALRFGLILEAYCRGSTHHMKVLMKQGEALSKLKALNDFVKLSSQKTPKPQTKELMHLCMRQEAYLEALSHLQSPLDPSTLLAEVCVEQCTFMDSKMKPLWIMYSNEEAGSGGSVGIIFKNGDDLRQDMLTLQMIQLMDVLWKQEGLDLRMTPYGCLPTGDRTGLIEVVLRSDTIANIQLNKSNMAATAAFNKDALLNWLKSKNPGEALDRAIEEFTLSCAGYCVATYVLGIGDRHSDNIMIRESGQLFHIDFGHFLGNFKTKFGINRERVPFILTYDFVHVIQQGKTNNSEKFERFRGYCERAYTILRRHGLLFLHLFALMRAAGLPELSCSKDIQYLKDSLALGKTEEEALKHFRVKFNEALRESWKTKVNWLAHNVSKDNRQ
Sequence of PI3K-Delta (P27986 whole entry partner): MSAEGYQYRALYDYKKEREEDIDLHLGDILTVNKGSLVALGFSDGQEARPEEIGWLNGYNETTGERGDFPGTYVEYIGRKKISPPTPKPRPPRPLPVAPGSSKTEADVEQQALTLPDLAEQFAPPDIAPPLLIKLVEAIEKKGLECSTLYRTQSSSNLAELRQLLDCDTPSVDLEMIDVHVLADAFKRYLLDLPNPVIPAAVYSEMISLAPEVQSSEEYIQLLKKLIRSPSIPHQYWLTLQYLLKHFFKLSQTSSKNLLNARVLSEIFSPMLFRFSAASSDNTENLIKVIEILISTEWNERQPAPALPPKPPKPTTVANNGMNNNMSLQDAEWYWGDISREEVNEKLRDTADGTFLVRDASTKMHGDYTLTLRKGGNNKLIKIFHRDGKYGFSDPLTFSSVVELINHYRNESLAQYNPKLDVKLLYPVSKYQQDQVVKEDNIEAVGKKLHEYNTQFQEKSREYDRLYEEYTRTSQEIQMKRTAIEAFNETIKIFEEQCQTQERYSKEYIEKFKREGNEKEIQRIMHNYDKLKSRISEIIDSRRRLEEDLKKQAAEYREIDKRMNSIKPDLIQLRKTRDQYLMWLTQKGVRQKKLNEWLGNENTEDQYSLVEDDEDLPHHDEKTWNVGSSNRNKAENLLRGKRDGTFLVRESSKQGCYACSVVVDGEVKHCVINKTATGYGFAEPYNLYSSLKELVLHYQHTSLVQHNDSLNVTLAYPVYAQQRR

IC50	Compound
≤ 3.16 nM	COc1ncc(N2CCOCC2)cc1S(=O)(=O)Nc1ccnc(-c2ccc(CN3CCN(C4COC4)CC3)cc2F)c1 [Example 15, N-(2-(2-Fluoro-4-((4-(oxetan-3-yl)piperazin-1-yl)methyl)phenyl)pyridin-4-yl)-2-methoxy-5-morpholinopyridine-3-sulfonamide, 3 formic acid salt]
≤ 3.16 nM	COc1ncc(N2CCOCC2)cc1S(=O)(=O)Nc1ccnc(-c2ccc(CN3CCCCC3)cc2F)c1 [Example 21, N-(2-(2-fluoro-4-(piperidin-1-ylmethyl)phenyl)pyridin-4-yl)-2-methoxy-5-morpholinopyridine-3-sulfonamide]
≤ 3.16 nM	COc1ncc(N2CCOCC2)cc1S(=O)(=O)Nc1ccnc(-c2ccc(CN3CCN(C(C)C)CC3)c(F)c2F)c1 [Example 14, N-(2-(2,3-Difluoro-4-((4-isopropylpiperazin-1-yl)methyl)phenyl)pyridin-4-yl)-2-methoxy-5-morpholinopyridine-3-sulfonamide]
≤ 3.16 nM	COc1ncc(N2CCOCC2)cc1S(=O)(=O)Nc1ccnc(-c2ccc(CN3CCN(C(C)(C)C)CC3)cc2F)c1 [Example 2, N-(2-(4-((4-(tert-Butyl)piperazin-1-yl)methyl)-2-fluorophenyl)pyridin-4-yl)-2-methoxy-5-morpholinopyridine-3-sulfonamide]
≤ 3.16 nM	COc1ncc(N2CCOCC2)cc1S(=O)(=O)Nc1ccnc(-c2ccc(CN3CCC(C(C)(C)O)CC3)cc2F)c1 [Example 22]
≤ 3.16 nM	CCOc1ncc(N2CCOCC2)cc1S(=O)(=O)Nc1ccnc(-c2ccc(CN3C[C@@H](C)O[C@@H](C)C3)cc2F)c1 [Example 37, Rac-N-(2-(4-(((2S,6R)-2,6-dimethylmorpholino)methyl)-2-fluorophenyl)pyridin-4-yl)-2-ethoxy-5-morpholinopyridine-3-sulfonamide]
≤ 3.16 nM	COc1ncc(N2CCOCC2)cc1S(=O)(=O)Nc1ccnc(-c2ccc(CN3CCN(C(C)(C)C)CC3)cc2)c1 [Example 6, N-(2-(4-((4-(tert-Butyl)piperazin-1-yl)methyl)phenyl)pyridin-4-yl)-2-methoxy-5-morpholinopyridine-3-sulfonamide]
1 nM and ≤ 3.16 nM	COc1ncc(N2CCOCC2)cc1S(=O)(=O)Nc1ccnc(-c2ccc(CN3CCN(C(C)C)CC3)cc2F)c1 [Example 1, N-(2-(2-Fluoro-4-((4-isopropylpiperazin-1-yl)methyl)phenyl)pyridin-4-yl)-2-methoxy-5-morpholinopyridine-3-sulfonamide]
≤ 3.16 nM	COc1ncc(N2CCOCC2)cc1S(=O)(=O)Nc1ccnc(-c2cc(F)c(CN3CCN(C(C)C)CC3)cc2F)c1 [Example 17, N-(2-(2,5-Difluoro-4-((4-isopropylpiperazin-1-yl)methyl)phenyl)pyridin-4-yl)-2-methoxy-5-morpholinopyridine-3-sulfonamide]
≤ 3.16 nM	COc1ncc(N2CCOCC2)cc1S(=O)(=O)Nc1ccnc(-c2ccc(CN3CCN(C4COC4)CC3)cc2)c1 [Example 13]
≤ 3.16 nM	COc1ncc(N2CCOCC2)cc1S(=O)(=O)Nc1ccnc(-c2ccc(CN3CCN(C(C)C)CC3)cc2)c1 [Example 3, N-(2-(4-((4-Isopropylpiperazin-1-yl)methyl)phenyl)pyridin-4-yl)-2-methoxy-5-morpholinopyridine-3-sulfonamide]
≤ 3.16 nM	COc1ncc(N2CCOCC2)cc1S(=O)(=O)Nc1ccnc(-c2ccc(CN3CCC(C)C3)cc2F)c1 (stereo not shown) [Example 19, N-(2-(2-fluoro-4-((3-methylpyrrolidin-1-yl)methyl)phenyl)pyridin-4-yl)-2-methoxy-5-morpholinopyridine-3-sulfonamide]
≤ 3.16 nM	COc1ncc(N2CCOCC2)cc1S(=O)(=O)Nc1ccnc(-c2cc(F)c(CN3CCN(C(C)C)CC3)c(F)c2)c1 [Example 12, N-(2-(3,5-Difluoro-4-((4-isopropylpiperazin-1-yl)methyl)phenyl)pyridin-4-yl)-2-methoxy-5-morpholinopyridine-3-sulfonamide]
≤ 3.16 nM	CN(C)c1ncc(N2CCOCC2)cc1S(=O)(=O)Nc1ccnc(-c2ccc(CN3CCN(C(C)(C)C)CC3)cc2F)c1 [Example 27, N-(2-(4-((4-(tert-Butyl)piperazin-1-yl)methyl)-2-fluorophenyl)pyridin-4-yl)-2-(dimethylamino)-5-morpholinopyridine-3-sulfonamide]
≤ 3.16 nM	COc1ncc(N2CCOCC2)cc1S(=O)(=O)Nc1ccnc(-c2cc(Cl)c(CN3CCN(C(C)C)CC3)cc2F)c1 [Example 35, N-(2-(5-Chloro-2-fluoro-4-((4-isopropylpiperazin-1-yl)methyl)phenyl)pyridin-4-yl)-2-methoxy-5-morpholinopyridine-3-sulfonamide]
≤ 3.16 nM	CC(C)N1CCN(Cc2ccc(-c3cc(NS(=O)(=O)c4cc(N5CCOCC5)cnc4N(C)C)ccn3)c(F)c2)CC1 [Example 26, 2-(Dimethylamino)-N-(2-(2-fluoro-4-((4-isopropylpiperazin-1-yl)methyl)phenyl)pyridin-4-yl)-5-morpholinopyridine-3-sulfonamide]
≤ 3.16 nM	COc1ncc(N2CCOCC2)cc1S(=O)(=O)Nc1ccnc(-c2ccc(CN3CCNCC3)cc2F)c1 [Example 25, N-(2-(2-Fluoro-4-(piperazin-1-ylmethyl)phenyl)pyridin-4-yl)-2-methoxy-5-morpholinopyridine-3-sulfonamide]
≤ 3.16 nM	CCC(C)N1CCN(Cc2ccc(-c3cc(NS(=O)(=O)c4cc(N5CCOCC5)cnc4OC)ccn3)cc2)CC1 (stereo not shown) [Example 9]
≤ 3.16 nM	COc1ncc(N2CCOCC2)cc1S(=O)(=O)Nc1ccnc(-c2ccc(CN3CCN(C4CCC4)CC3)cc2F)c1 [Example 16, N-(2-(4-((4-Cyclobutylpiperazin-1-yl)methyl)-2-fluorophenyppyridin-4-yl)-2-methoxy-5-morpholinopyridine-3-sulfonamide, 2.5 formic acid salt]
≤ 3.16 nM	COc1ncc(N2CCOCC2)cc1S(=O)(=O)Nc1ccnc(-c2ccc(CN3C[C@@H](C)O[C@@H](C)C3)cc2F)c1 [Example 36, Rac-N-(2-(4-(((2S,6R)-2,6-dimethylmorpholino)methyl)-2-fluorophenyl)pyridin-4-yl)-2-methoxy-5-morpholinopyridine-3-sulfonamide]
≤ 3.16 nM	COc1ncc(N2CCOCC2)cc1S(=O)(=O)Nc1ccnc(-c2c(F)cc(CN3CCN(C(C)C)CC3)cc2F)c1 [Example 8, N-(2-(2,6-Difluoro-4-((4-isopropylpiperazin-1-yl)methyl)phenyl)pyridin-4-yl)-2-methoxy-5-morpholinopyridine-3-sulfonamide]
≤ 3.16 nM	COc1ncc(N2CCOCC2)cc1S(=O)(=O)Nc1ccnc(-c2ccc(CN3CCN(C(C)C)CC3)c(F)c2)c1 [Example 5, N-(2-(3-Fluoro-4-((4-isopropylpiperazin-1-yl)methyl)phenyl)pyridin-4-yl)-2-methoxy-5-morpholinopyridine-3-sulfonamide]
≤ 3.16 nM	COc1ncc(N2CCOCC2)cc1S(=O)(=O)Nc1ccnc(-c2ccc(CN3C[C@@H](C)O[C@@H](C)C3)cc2)c1 [Example 23, N-(2-(4-(((cis)-2,6-Dimethylmorpholino)methyl)phenyl)pyridin-4-yl)-2-methoxy-5-morpholinopyridine-3-sulfonamide]
≤ 3.16 nM	COCCN1CCN(Cc2ccc(-c3cc(NS(=O)(=O)c4cc(N5CCOCC5)cnc4OC)ccn3)c(F)c2)CC1 [Example 18, N-(2-(2-Fluoro-4-((4-(2-methoxyethyl)piperazin-1-yl)methyl)phenyl)pyridin-4-yl)-2-methoxy-5-morpholinopyridine-3-sulfonamide, 1.2 formic acid salt]
≤ 3.16 nM	COc1ncc(N2CCOCC2)cc1S(=O)(=O)Nc1ccnc(-c2ccc(CN3CCN(C4CCC4)CC3)cc2)c1 [Example 7]
